Reference: PMC8119466, “A screen of FDA-approved drugs identifies inhibitors of protein tyrosine phosphatase 4A3 (PTP4A3 or PRL-3)” (Scientific Reports, 2021)
Counter-ions that a name gives are not always drawn.

Columns and labels:
Format in all cases: biochemical
Details in all cases: FDA-approved drug screen; compared to DMSO
recombinant PRL-1 = target: T1, recombinant PRL-1 (Homo sapiens, UniProt Q93096); test: In vitro phosphatase assay (DiFMUP hydrolysis), PRL-1; note: test concentration or dose not given here
T1 construct: 6xHis (N, cleaved yes); made in house; host or cells: E. coli One Shot BL21 Star
T1 sequence (Q93096 1-173): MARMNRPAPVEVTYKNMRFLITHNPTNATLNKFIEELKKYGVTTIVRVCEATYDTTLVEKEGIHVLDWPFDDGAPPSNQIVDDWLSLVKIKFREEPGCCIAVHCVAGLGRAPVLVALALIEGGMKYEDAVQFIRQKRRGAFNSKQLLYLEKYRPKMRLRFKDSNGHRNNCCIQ

recombinant PRL-2 = target: T2, recombinant PRL-2 (Homo sapiens, UniProt Q12974); test: In vitro phosphatase assay (DiFMUP hydrolysis), PRL-2;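 note: PRL-2 activity read as DiFMUP hydrolysis after 20 min at room temperature with drug, enzyme first pre-reduced at 4 °C for 20 min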
T2 construct: 6xHis (N, cleaved yes); made in house; host or cells: E. coli One Shot BL21 Star
T2 sequence (Q12974 1-167): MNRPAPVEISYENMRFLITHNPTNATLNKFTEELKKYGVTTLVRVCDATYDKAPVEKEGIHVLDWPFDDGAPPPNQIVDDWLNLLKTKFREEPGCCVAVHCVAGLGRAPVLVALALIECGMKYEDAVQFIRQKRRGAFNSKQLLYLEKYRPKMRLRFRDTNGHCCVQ

recombinant PRL-3 = target: T3, recombinant PRL-3 (Homo sapiens, UniProt O75365); test: In vitro phosphatase assay (DiFMUP hydrolysis), PRL-3; note: test concentration or dose not given here
T3 construct: 6xHis (N, cleaved yes); made in house; host or cells: E. coli One Shot BL21 Star
T3 sequence (O75365 whole entry): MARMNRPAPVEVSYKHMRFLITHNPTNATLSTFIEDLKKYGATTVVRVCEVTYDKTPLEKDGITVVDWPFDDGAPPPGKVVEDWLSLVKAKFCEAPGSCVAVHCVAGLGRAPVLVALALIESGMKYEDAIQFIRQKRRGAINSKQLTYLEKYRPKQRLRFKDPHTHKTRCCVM

SMILES | % Phosphatase Activity (compared to DMSO) PRL-1 (recombinant PRL-1) | % Phosphatase Activity (compared to DMSO) PRL-2 (recombinant PRL-2) | % Phosphatase Activity (compared to DMSO) PRL-3 (recombinant PRL-3)
O.S=c1[nH]cnc2nc[nH]c12 [6-Mercaptopurine (6-MP) Monohydrate] | 95% | 108% | 85%
C=CCNC1=C2C[C@@H](C)C[C@H](OC)[C@H](O)[C@@H](C)/C=C(\C)[C@H](OC(N)=O)[C@@H](OC)/C=C\C=C(/C)C(=O)NC(=CC1=O)C2=O [17-AAG (Tanespimycin)] | 86% | 83% | 81%
CC12CCC(CC1=O)C2(C)C (stereo not drawn) [(+)-Camphor] | 116% | 132% | 104%
CC(C)NC[C@@H](O)COc1ccc(CC(N)=O)cc1 [(R)-(+)-Atenolol] | 113% | 109% | 74%
NC[C@H](CC(=O)O)c1ccc(Cl)cc1 [(R)-baclofen] | 95% | 121% | 117%
CC1(C)CCC(CN2CCN(c3ccc(C(=O)NS(=O)(=O)c4ccc(NCC5CCOCC5)c([N+](=O)[O-])c4)c(Oc4cnc5[nH]ccc5c4)c3)CC2)=C(c2ccc(Cl)cc2)C1 [ABT-199 (GDC-0199)] | 68% | 30% | 78%
CC1(C)CCC(c2ccc(Cl)cc2)=C(CN2CCN(c3ccc(C(=O)NS(=O)(=O)c4ccc(N[C@H](CCN5CCOCC5)CSc5ccccc5)c(S(=O)(=O)C(F)(F)F)c4)cc3)CC2)C1 [ABT-263 (Navitoclax)] | 90% | 75% | 81%
CC(C)c1cc(C(=O)N2Cc3ccc(CN4CCN(C)CC4)cc3C2)c(O)cc1O [AT13387] | 98% | 100% | 82%
C=CC(=O)Nc1cc(Nc2nccc(-c3cn(C)c4ccccc34)n2)c(OC)cc1N(C)CCN(C)C [AZD9291] | 88% | 89% | 100%
Nc1nc(NC2CC2)c2ncn([C@H]3C=C[C@@H](CO)C3)c2n1 [Abacavir sulfate] | 88% | 85% | 111%
NC(=O)c1ncn([C@@H]2O[C@H](CO)[C@@H](O)[C@H]2O)c1N [Acadesine] | 91% | 100% | 95%
C[C@H]1O[C@H](O[C@H]2[C@H](O)[C@@H](O)[C@@H](O[C@H]3[C@H](O)[C@@H](O)C(O)O[C@@H]3CO)O[C@@H]2CO)[C@H](O)[C@@H](O)[C@@H]1N[C@H]1C=C(CO)[C@@H](O)[C@H](O)[C@H]1O (stereo partly drawn) [Acarbose] | 94% | 102% | 73%
CCCC(=O)Nc1ccc(OCC(O)CNC(C)C)c(C(C)=O)c1 (stereo not drawn) [Acebutolol HCl] | 105% | 123% | 86%
CC(=O)OC1CN2CCC1CC2 (stereo not drawn) [Aceclidine HCl] | 97% | 95% | 85%
CC(=O)NC(CCC(N)=O)C(=O)O (stereo not drawn) [Aceglutamide] | 107% | 96% | 87%
COc1ccc2c(c1)c(CC(=O)OCC(=O)O)c(C)n2C(=O)c1ccc(Cl)cc1 [Acemetacin] | 93% | 121% | 94%
CC(=O)Nc1ccccc1 [Acetanilide] | 110% | 110% | 81%
